In patent US20230364070A1, “PYRROLO[3,2-C]PYRIDIN-4-ONE DERIVATIVES USEFUL IN THE TREATMENT OF CANCER” (Scorpion Therapeutics, Inc., priority 2020, published 2023):

Tests used:
Type in all cases: cell-based
[1] = target: T1, pEGFR in CUTO14 cells (Homo sapiens, UniProt P00533, DUP767-769); test: Inhibitor activity on EGFR phosphorylation (pEGFR AlphaLISA, 2 h), CUTO14 cells
T1 construct: endogenous in cells; host or cells: CUTO14 cells
Procedure: CUTO14 cells were obtained from Dr. Robert C. Doebele at the University of Colorado.
Shake 350 rpm for 1 hr in the dark • 3.4 Prepare donor mix under low light conditions prior to use. Dispense 5 μL of donor mix to all the wells. Mix well on the shaker, seal and wrap in aluminum foil and incubate 1.5 hrs at room temperature in the dark • 3.5 Transfer 18.5 μL mixture to OptiPlate 384, and read using an Envision.

[2] = target: T2, pEGFR in Ba/F3 cells expressing EGFR exon 20 NPG Ins D770_N771 (Homo sapiens, UniProt P00533, INS770NPG); test: Inhibitor activity on EGFR phosphorylation (pEGFR AlphaLISA, 2 h), Ba/F3 EGFR exon 20 NPG insertion; conditions: Ba/F3 EGFR exon 20 NPG Ins D770_N771
T2 construct: expressed in transfected cells; host or cells: Ba/F3 (murine pro-B cells), retroviral transduction, puromycin selection, IL3-independent pool
T2 sequence (P00533 with tags, fused parts or gaps INS770NPG): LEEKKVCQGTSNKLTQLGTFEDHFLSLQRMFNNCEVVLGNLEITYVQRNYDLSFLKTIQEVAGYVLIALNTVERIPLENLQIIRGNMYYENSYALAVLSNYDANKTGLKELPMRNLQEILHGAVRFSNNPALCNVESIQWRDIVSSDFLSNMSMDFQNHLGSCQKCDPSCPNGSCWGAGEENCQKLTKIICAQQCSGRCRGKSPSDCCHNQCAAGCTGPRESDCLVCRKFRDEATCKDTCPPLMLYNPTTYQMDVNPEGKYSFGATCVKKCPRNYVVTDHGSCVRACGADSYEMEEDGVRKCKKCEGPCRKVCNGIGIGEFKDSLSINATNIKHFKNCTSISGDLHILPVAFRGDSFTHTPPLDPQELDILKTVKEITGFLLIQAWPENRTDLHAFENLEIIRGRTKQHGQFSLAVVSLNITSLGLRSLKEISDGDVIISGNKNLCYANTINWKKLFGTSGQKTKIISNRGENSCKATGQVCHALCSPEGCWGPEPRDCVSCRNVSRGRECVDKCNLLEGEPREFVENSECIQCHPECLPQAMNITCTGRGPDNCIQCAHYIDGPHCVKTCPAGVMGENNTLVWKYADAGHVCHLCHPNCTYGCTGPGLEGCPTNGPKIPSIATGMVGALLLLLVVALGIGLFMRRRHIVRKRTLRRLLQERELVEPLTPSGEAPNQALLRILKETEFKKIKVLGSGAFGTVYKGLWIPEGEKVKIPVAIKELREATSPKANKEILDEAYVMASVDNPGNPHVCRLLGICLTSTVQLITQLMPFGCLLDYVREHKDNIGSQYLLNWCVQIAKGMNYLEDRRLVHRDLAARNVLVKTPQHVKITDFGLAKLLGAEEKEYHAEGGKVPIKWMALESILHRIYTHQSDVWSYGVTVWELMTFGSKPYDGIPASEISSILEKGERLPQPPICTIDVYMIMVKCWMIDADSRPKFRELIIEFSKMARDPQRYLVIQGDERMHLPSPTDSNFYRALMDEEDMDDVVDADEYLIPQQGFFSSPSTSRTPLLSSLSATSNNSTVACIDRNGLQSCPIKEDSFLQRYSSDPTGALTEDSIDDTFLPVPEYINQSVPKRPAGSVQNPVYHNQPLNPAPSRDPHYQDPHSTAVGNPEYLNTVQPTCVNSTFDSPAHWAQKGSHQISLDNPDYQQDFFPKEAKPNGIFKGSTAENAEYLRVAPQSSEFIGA

[3] = target: T3, pEGFR in Ba/F3 cells expressing EGFR exon 20 ASV Ins V769_D770 (Homo sapiens, UniProt P00533, INS769ASV); test: Inhibitor activity on EGFR phosphorylation (pEGFR AlphaLISA, 2 h), Ba/F3 EGFR exon 20 ASV insertion; conditions: Ba/F3 EGFR exon 20 ASV Ins V769_D770
T3 construct: expressed in transfected cells; host or cells: Ba/F3 (murine pro-B cells), retroviral transduction, puromycin selection, IL3-independent pool
T3 sequence (P00533 with tags, fused parts or gaps INS769ASV): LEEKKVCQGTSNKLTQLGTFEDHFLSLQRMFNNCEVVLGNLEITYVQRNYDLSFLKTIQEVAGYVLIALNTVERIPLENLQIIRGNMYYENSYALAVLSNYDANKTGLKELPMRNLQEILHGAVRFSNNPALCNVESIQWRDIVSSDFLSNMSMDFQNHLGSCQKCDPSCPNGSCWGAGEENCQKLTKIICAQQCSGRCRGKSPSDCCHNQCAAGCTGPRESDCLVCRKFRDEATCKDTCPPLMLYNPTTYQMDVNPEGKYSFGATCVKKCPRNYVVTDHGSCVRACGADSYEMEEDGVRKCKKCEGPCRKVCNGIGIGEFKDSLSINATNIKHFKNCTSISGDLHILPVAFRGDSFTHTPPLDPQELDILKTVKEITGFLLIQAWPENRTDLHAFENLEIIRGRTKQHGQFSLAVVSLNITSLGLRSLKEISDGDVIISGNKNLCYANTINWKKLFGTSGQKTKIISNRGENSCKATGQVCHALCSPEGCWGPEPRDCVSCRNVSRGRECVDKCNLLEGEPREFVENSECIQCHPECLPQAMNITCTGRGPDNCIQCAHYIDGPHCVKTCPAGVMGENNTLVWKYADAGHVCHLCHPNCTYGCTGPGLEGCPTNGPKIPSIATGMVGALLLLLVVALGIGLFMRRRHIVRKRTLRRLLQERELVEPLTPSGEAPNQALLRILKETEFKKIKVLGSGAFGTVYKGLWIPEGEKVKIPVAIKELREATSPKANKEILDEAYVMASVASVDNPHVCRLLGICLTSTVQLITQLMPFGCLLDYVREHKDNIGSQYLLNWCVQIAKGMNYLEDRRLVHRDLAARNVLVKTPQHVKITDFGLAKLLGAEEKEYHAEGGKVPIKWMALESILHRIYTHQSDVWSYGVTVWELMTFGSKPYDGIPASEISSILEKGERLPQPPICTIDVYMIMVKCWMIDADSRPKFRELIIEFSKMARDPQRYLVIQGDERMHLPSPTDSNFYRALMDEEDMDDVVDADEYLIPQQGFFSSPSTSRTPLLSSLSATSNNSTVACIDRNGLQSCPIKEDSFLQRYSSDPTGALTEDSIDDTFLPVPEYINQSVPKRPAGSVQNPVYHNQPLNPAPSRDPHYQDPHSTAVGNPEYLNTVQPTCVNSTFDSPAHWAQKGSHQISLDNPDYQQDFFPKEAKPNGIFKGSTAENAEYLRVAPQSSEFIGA

[4] = target: T4, Ba/F3 cells with EGFR exon 20 NPG Ins D770_N771 (Homo sapiens, UniProt P00533, INS770NPG); test: EGFR activity: Ba/F3 cell viability (CellTiter-Glo, 72 h), EGFR exon 20 NPG insertion; conditions: EGFR exon 20 NPG Ins D770_N771, cell viability, read-out: BaF3 NPG IC50
T4 construct: expressed in transfected cells; host or cells: Ba/F3 (murine pro-B cells), retroviral transduction, puromycin selection, IL3-independent pool
T4 sequence (P00533 with tags, fused parts or gaps INS770NPG): as the sequence (P00533 with tags, fused parts or gaps INS770NPG) above

[5] = target: T5, Ba/F3 cells with EGFR exon 20 ASV Ins V769_D770 (Homo sapiens, UniProt P00533, INS769ASV); test: EGFR activity: Ba/F3 cell viability (CellTiter-Glo, 72 h), EGFR exon 20 ASV insertion; conditions: EGFR exon 20 ASV Ins V769_D770, cell viability, read-out: BaF3 ASV IC50
T5 construct: expressed in transfected cells; host or cells: Ba/F3 (murine pro-B cells), retroviral transduction, puromycin selection, IL3-independent pool
T5 sequence (P00533 with tags, fused parts or gaps INS769ASV): as the sequence (P00533 with tags, fused parts or gaps INS769ASV) above

[6] = target: T6, Ba/F3 cells with EGFR WT (Homo sapiens, UniProt P00533); test: EGFR activity: Ba/F3 cell viability (CellTiter-Glo, 72 h), EGFR WT; conditions: read-out: BaF3 WT IC50
T6 construct: expressed in transfected cells; host or cells: Ba/F3 (murine pro-B cells), retroviral transduction, puromycin selection, maintained with EGF

IC50 [1] [µM]	IC50 [2] [µM]	IC50 [3] [µM]	Structure (SMILES)	IC50 [4] [µM]	IC50 [5] [µM]	IC50 [6] [µM]
< 0.1	< 0.1	< 0.1	C=CC(=O)N1CC[C@H]1COc1cnccc1-c1[nH]c2c(c1Nc1cccc(Cl)c1OC)C(=O)NCC2 [145b, 3-[(3-chloro-2-methoxyphenyl)amino]-2-(3-[[(2S)-1-(prop-2-enoyl)azetidin-2-yl]methoxy]pyridin-4-yl)-1H,5H,6H,7H-pyrrolo[3,2-c]pyridin-4-one]	–	–	–
< 0.1	< 0.1	< 0.1	C=CC(=O)N1CCC[C@@H]1COc1cnccc1-c1[nH]c2c(c1Nc1cccc(F)c1C)C(=O)NCC2 [Compound 140, (R)-2-(3-((1-acryloylpyrrolidin-2-yl)methoxy)pyridin-4-yl)-3-((3-fluoro-2-methylphenyl)amino)-1,5,6,7-tetrahydro-4H-pyrrolo[3,2-c]pyridin-4-one]	< 0.1	< 0.1	0.1 to 1
< 0.1	< 0.1	< 0.1	C=CC(=O)N1CC[C@@H]1COc1cnccc1-c1[nH]c2c(c1Nc1cccc(Cl)c1OC)C(=O)NCC2 [Compound 145a, (R)-2-(3-((1-acryloylazetidin-2-yl)methoxy)pyridin-4-yl)-3-((3-chloro-2-methoxyphenyl)amino)-1,5,6,7-tetrahydro-4H-pyrrolo[3,2-c]pyridin-4-one]	< 0.1	< 0.1	0.1 to 1
< 0.1	< 0.1	< 0.1	C=CC(=O)N1CCC[C@H]1C#Cc1cnccc1-c1[nH]c2c(c1Nc1cccc(F)c1OC)C(=O)NCC2 [Compound 147a, (S)-2-(3-((1-acryloylpyrrolidin-2-yl)ethynyl)pyridin-4-yl)-3-((3-fluoro-2-methoxyphenyl)amino)-1,5,6,7-tetrahydro-4H-pyrrolo[3,2-c]pyridin-4-one]	< 0.1	< 0.1	< 0.1
< 0.1	< 0.1	< 0.1	C=CC(=O)N1CCC[C@@H]1C#Cc1cnccc1-c1[nH]c2c(c1Nc1cccc(F)c1OC)C(=O)NCC2 [Compound 147b, (R)-2-(3-((1-acryloylpyrrolidin-2-yl)ethynyl)pyridin-4-yl)-3-((3-fluoro-2-methoxyphenyl)amino)-1,5,6,7-tetrahydro-4H-pyrrolo[3,2-c]pyridin-4-one]	< 0.1	< 0.1	0.1 to 1
< 0.1	< 0.1	< 0.1	C=CC(=O)N1CCC[C@H]1COc1cnccc1-c1[nH]c2c(c1Nc1cccc(F)c1C)C(=O)NCC2 [Compound 467, 3-[(3-fluoro-2-methylphenyl)amino]-2-(3-[[(2S)-1-(prop-2-enoyl)pyrrolidin-2-yl]methoxy]pyridin-4-yl)-1H,5H,6H,7H-pyrrolo[3,2-c]pyridin-4-one]	< 0.1	< 0.1	< 0.1
–	< 0.1	< 0.1	COc1c(F)cccc1Nc1c(-c2ccncc2OCc2ccncn2)[nH]c2c1C(=O)NCC2 [Compound 478, 3-[(3-fluoro-2-methoxyphenyl)amino]-2-[3-(pyrimidin-4-ylmethoxy)pyridin-4-yl]-1H,5H,6H,7H-pyrrolo[3,2-c]pyridin-4-one]	< 0.1	< 0.1	0.1 to 1
–	< 0.1	0.1 to 1	COc1c(F)cccc1Nc1c(-c2ccncc2OCc2ccnn2C)[nH]c2c1C(=O)NCC2 [Compound 480, 3-[(3-fluoro-2-methoxyphenyl)amino]-2-[3-[(2-methylpyrazol-3-yl)methoxy]pyridin-4-yl]-1H,5H,6H,7H-pyrrolo[3,2-c]pyridin-4-one]	> 1	> 1	> 1
–	< 0.1	< 0.1	COc1c(F)cccc1Nc1c(-c2ccncc2OCCc2ccco2)[nH]c2c1C(=O)NCC2 [Compound 483, 3-[(3-fluoro-2-methoxyphenyl)amino]-2-[3-[2-(furan-2-yl)ethoxy]pyridin-4-yl]-1H,5H,6H,7H-pyrrolo[3,2-c]pyridin-4-one]	< 0.1	0.1 to 1	0.1 to 1
< 0.1	< 0.1	< 0.1	C=CC(=O)NC1(C#Cc2cnccc2-c2[nH]c3c(c2Nc2cccc(Cl)c2OC)C(=O)NCC3)CC1 [compound 207, N-{1-[2-(4-{3-[(3-chloro-2-methoxyphenyl)amino]-4-oxo-1H,5H,6H,7H-pyrrolo[3,2-c]pyridin-2-yl}pyridin-3-yl)ethynyl]cyclopropyl}prop-2-enamide]	–	–	–
< 0.1	< 0.1	< 0.1	C=CC(=O)N1CC(F)(F)C[C@@H]1C#Cc1cnccc1-c1[nH]c2c(c1Nc1cccc(Cl)c1OC)C(=O)NCC2 [compound 519, 3-[(3-chloro-2-methoxyphenyl)amino]-2-(3-[2-[(2R)-4,4-difluoro-1-(prop-2-enoyl)pyrrolidin-2-yl]ethynyl]pyridin-4-yl)-1H,5H,6H,7H-pyrrolo[3,2-c]pyridin-4-one]	–	–	–
< 0.1	< 0.1	< 0.1	COc1c(Cl)cccc1Nc1c(-c2ccncc2C#CC2(C(F)(F)F)CC2)[nH]c2c1C(=O)NCC2 [compound 528, 3-[(3-chloro-2-methoxyphenyl)amino]-2-(3-[2-[1-(trifluoromethyl)cyclopropyl]ethynyl]pyridin-4-yl)-1H,5H,6H,7H-pyrrolo[3,2-c]pyridin-4-one]	–	–	–
< 0.1	< 0.1	< 0.1	COc1c(Cl)cccc1Nc1c(-c2ccncc2C#CC2(C(F)F)CC2)[nH]c2c1C(=O)NCC2 [compound 546]	< 0.1	< 0.1	0.1 to 1
